Measured values published in US9783537B2, “3-(4-ethylnylphenyl) pyridopyrimidinone compounds and process for preparation thereof useful as potential anticancer agents” (Council of Scientific & Industrial Research, priority 2013, dated 2017).
Read-outs that look alike come from different tables or passages of the source.

How the values were obtained:
HL-60(TB) = assay: SRB 48 h growth assay, Leukemia HL-60(TB); format: cell-based, human
HOP-62 = assay: SRB 48 h growth assay, Non-small Cell Lung HOP-62; format: cell-based, human; settings: HOP-62, Non-small Cell Lung; for GI50: Homo sapiens
NCI-H23 = assay: SRB 48 h growth assay, Non-small Cell Lung NCI-H23; format: cell-based, human; settings: for GI50: Homo sapiens
NCI-H322M = assay: SRB 48 h growth assay, Non-small Cell Lung NCI-H322M; format: cell-based, human
HCC-2998 = assay: SRB 48 h growth assay, Colon HCC-2998; format: cell-based, human; settings: HCC-2998, Colon
KM12 = assay: SRB 48 h growth assay, Colon KM12; format: cell-based, human
SW-620 = assay: SRB 48 h growth assay, Colon SW-620; format: cell-based, human; settings: SW-620, Colon
SF-268 = assay: SRB 48 h growth assay, CNS SF-268; format: cell-based, human; settings: SF-268, CNS
SNB-19 = assay: SRB 48 h growth assay, CNS SNB-19; format: cell-based, human; settings: Homo sapiens, SNB-19, CNS
LOX IMVI = assay: SRB 48 h growth assay, Melanoma LOX IMVI; format: cell-based, human; settings: for GI50: Homo sapiens
MDA-MB-435 = assay: SRB 48 h growth assay, Melanoma MDA-MB-435; format: cell-based, human; settings: Homo sapiens, MDA-MB-435, Melanoma
SK-MEL-2 = assay: SRB 48 h growth assay, Melanoma SK-MEL-2; format: cell-based, human; settings: SK-MEL-2, Melanoma; for GI50: Homo sapiens
SK-MEL-28 = assay: SRB 48 h growth assay, Melanoma SK-MEL-28; format: cell-based, human; settings: SK-MEL-28, Melanoma; for GI50: Homo sapiens
OVCAR-5 = assay: SRB 48 h growth assay, Ovarian OVCAR-5; format: cell-based, human; settings: OVCAR-5, Ovarian; for GI50: Homo sapiens
ACHN = assay: SRB 48 h growth assay, Renal ACHN; format: cell-based, human; settings: for GI50: Homo sapiens
RXF393 = assay: SRB 48 h growth assay, Renal RXF393; format: cell-based, human
SN12C = assay: SRB 48 h growth assay, Renal SN12C; format: cell-based, human
DU-145 = assay: SRB 48 h growth assay, Prostate DU-145; format: cell-based, human; settings: DU-145, Prostate; for GI50: Homo sapiens
MCF7 = assay: SRB 48 h growth assay, Breast MCF7; format: cell-based, human; settings: Homo sapiens
HS578T = assay: SRB 48 h growth assay, Breast HS578T; format: cell-based, human; settings: Homo sapiens, Hs-578T
BT-549 = assay: SRB 48 h growth assay, Breast BT-549; format: cell-based, human; settings: BT-549, Breast
T-47D = assay: SRB 48 h growth assay, Breast T-47D; format: cell-based, human; settings: for GI50: Homo sapiens, T47D
MDA-MB-468 = assay: SRB 48 h growth assay, Breast MDA-MB-468; format: cell-based, human; settings: MDA-MB-468, Breast
[1] = test system: six leukemia cancer cell lines (CCRF-CEM, HL-60, K-562, MOLT-4, SR and RPMI-8226); assay: in vitro anticancer activity, leukemia panel; format: cell-based; settings: Homo sapiens, exposure at least 48 h, read-out: GI50, range over panel
[2] = in vitro anticancer activity, non-small cell lung panel; format: cell-based; settings: Homo sapiens; nine non-small cell lung cancer cell lines, exposure at least 48 h; read-out: GI50, range over panel
[3] = test system: two prostate cancer cell line (PC-3, DU-145); assay: in vitro anticancer activity, prostate panel; format: cell-based; settings: Homo sapiens; two prostate cancer cell lines, exposure at least 48 h; read-out: GI50, range over panel
[4] = test system: six breast cancer cell line (MCF-7, MDA-MB-231/ATCC, HS 578T, TD-47D, MDA-MB-468 and BT-549); assay: in vitro anticancer activity, breast panel; format: cell-based; settings: Homo sapiens; six breast cancer cell lines, exposure at least 48 h; read-out: GI50, range over panel
[5] = Homo sapiens, read-out: Growth Inhibition GI50
[6] = Homo sapiens, read-out: Log10 GI50 (converted)
[7] = Homo sapiens, read-out: Log10 LC50 (converted)
[8] = read-out: Growth Inhibition GI50
[9] = read-out: Log10 GI50 (converted)
[10] = read-out: Log10 LC50 (converted)

SMILES: C#Cc1ccc(-n2c(/C=C/c3ccc4ccccc4n3)nc3ncccc3c2=O)cc1 [4t, (E)-3-(4-Ethynylphenyl)-2-(2-(quinolin-2-yl)vinyl)pyrido[2,3-d]pyrimidin-4(3H)-one]
- Log10 TGI50 (HL-60(TB)): −6.07
- GI50 (HL-60(TB); [5]): 290 nM
- GI50 (HL-60(TB); [6]): 295 nM
- CC50 (HL-60(TB); [7]): > 100 µM
- Log10 TGI50 (HOP-62): −5.72
- GI50 (HOP-62; [8]): 460 nM
- GI50 (HOP-62; [9]): 468 nM
- Log10 TGI50 (NCI-H23): −5.62
- GI50 (NCI-H23; [8]): 700 nM
- GI50 (NCI-H23; [9]): 708 nM
- Log10 TGI50 (NCI-H322M): −5.62
- GI50 (NCI-H322M; [5]): 520 nM
- GI50 (NCI-H322M; [6]): 525 nM
- CC50 (NCI-H322M; [7]): > 100 µM
- Log10 TGI50 (HCC-2998): −5.92
- GI50 (HCC-2998; [5]): 340 nM
- GI50 (HCC-2998; [6]): 347 nM
- CC50 (HCC-2998; [7]): 6.31 µM
- Log10 TGI50 (KM12): −5.97
- GI50 (KM12; [5]): 320 nM
- GI50 (KM12; [6]): 324 nM
- CC50 (KM12; [7]): 3.47 µM
- GI50 (SW-620; [5]): 350 nM
- GI50 (SW-620; [6]): 355 nM
- CC50 (SW-620; [7]): 3.89 µM
- Log10 TGI50 (SW-620): −5.90
- GI50 (SF-268; [5]): 380 nM
- GI50 (SF-268; [6]): 389 nM
- CC50 (SF-268; [7]): > 100 µM
- Log10 TGI50 (SF-268): −5.74
- GI50 (SNB-19; [8]): 720 nM
- GI50 (SNB-19; [9]): 724 nM
- CC50 (SNB-19; [10]): > 100 µM
- Log10 TGI50 (LOX IMVI): −5.99
- GI50 (LOX IMVI; [8]): 320 nM
- GI50 (LOX IMVI; [9]): 324 nM
- GI50 (MDA-MB-435; [8]): 190 nM
- GI50 (MDA-MB-435; [9]): 195 nM
- GI50 (SK-MEL-2; [8]): 410 nM
- GI50 (SK-MEL-2; [9]): 417 nM
- Log10 TGI50 (SK-MEL-2): −5.80
- GI50 (SK-MEL-28; [8]): 1050 nM
- GI50 (SK-MEL-28; [9]): 1050 nM
- Log10 TGI50 (SK-MEL-28): −5.51
- GI50 (OVCAR-5; [8]): 310 nM
- GI50 (OVCAR-5; [9]): 309 nM
- Log10 TGI50 (OVCAR-5): −5.97
- Log10 TGI50 (ACHN): −5.89
- GI50 (ACHN; [8]): 320 nM
- GI50 (ACHN; [9]): 324 nM
- Log10 TGI50 (RXF393): −6.07
- GI50 (RXF393; Homo sapiens, RXF 393, read-out: Growth Inhibition GI50): 250 nM
- GI50 (RXF393; Homo sapiens, RXF 393, read-out: Log10 GI50 (converted)): 257 nM
- CC50 (RXF393; Homo sapiens, RXF 393, read-out: Log10 LC50 (converted)): 5.01 µM
- Log10 TGI50 (SN12C): −5.67
- GI50 (SN12C; [5]): 390 nM
- GI50 (SN12C; [6]): 389 nM
- CC50 (SN12C; [7]): > 100 µM
- Log10 TGI50 (DU-145): −6.15
- GI50 (DU-145; [8]): 280 nM
- GI50 (DU-145; [9]): 282 nM
- GI50 (MCF7; [8]): 280 nM
- GI50 (MCF7; [9]): 288 nM
- CC50 (MCF7; [10]): > 100 µM
- GI50 (HS578T; [8]): 240 nM
- GI50 (HS578T; [9]): 240 nM
- CC50 (HS578T; [10]): > 100 µM
- Log10 TGI50 (BT-549): −5.87
- GI50 (BT-549; [5]): 350 nM
- GI50 (BT-549; [6]): 355 nM
- CC50 (BT-549; [7]): 5.5 µM
- Log10 TGI50 (T-47D): −6.05
- GI50 (T-47D; [8]): 290 nM
- GI50 (T-47D; [9]): 295 nM
- GI50 (MDA-MB-468; [5]): 230 nM
- GI50 (MDA-MB-468; [6]): 234 nM
- CC50 (MDA-MB-468; [7]): 3.47 µM
- Log10 TGI50 (MDA-MB-468): −6.05
- GI50 [1]: 3.2 to 7.35 µM
- GI50 [2]: 1.8 to 5.66 µM
- GI50 [3]: 3.87 to 4.1 µM
- GI50 [4]: 2.31 to 11.4 µM
